# According to patent publication US9555038B2, “Heterocycle-substituted tetracyclic compounds and methods of use thereof for the treatment of viral diseases” (Merck Sharp & Dohme Corp., priority 2013, dated 2017):
# Read-outs that look alike come from different tables or passages of the source.
# Assays:
# HCV replicon 1AY93H = test: Cell-based HCV Replicon Assay A, replicon 1AY93H
# Method in brief: (§1)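 Replicon cells were seeded at 2000 cells/well with test compound in 10 serial dilutions, starting at 333.3 nM to 1.667 nM, in 0.5% DMSO and 5% FBS. On day 3, cells were washed and lysed, and replicon RNA was quantified by multiplex TaqMan RT-PCR normalised to cyclophilin.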
# HCV replicon 2B = test: Cell-based HCV Replicon Assay A, replicon 2B
# Method in brief: as §1
# HCV replicon 1B = test: Cell-based HCV Replicon Assay B, replicon 1B
# Method in brief: (§2)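 Replicon cells seeded in 5% FBS; compounds added 24 h later, then 3 days' incubation. Replicon RNA quantified by real-time RT-PCR with genotype-specific primers/probes (NS5B amplicon for 1b). EC50 = concentration raising CT by 1 over projected baseline.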
# HCV replicon 1AQ30D = test: Cell-based HCV Replicon Assay B, replicon 1AQ30D
# Method in brief: as §2
# HCV replicon 1A = test: Cell-based HCV Replicon Assay A, replicon 1A
# Method in brief: as §1
# [1] = read-out: 1A Y93H IC50, replicon 1AY93H
# [2] = Hepatitis C virus, read-out: 1A Q30D IC50 (nM), replicon 1AQ30D
# [3] = Hepatitis C virus, read-out: 1A Y93H IC50 (nM), replicon 1AY93H
# [4] = Hepatitis C virus, read-out: 2B IC50 (nM), replicon 2B
# [5] = read-out: 1A Q30D IC50, replicon 1AQ30D
smiles,measurement,setting,value
"CCc1ncc(C2Oc3cc(-c4cnc([C@@H]5CCCN5C(=O)[C@@H](NC(=O)OC)C(C)C)[nH]4)cc(F)c3-c3cc4cc(-c5cnc([C@@H]6CCCN6C(=O)[C@@H](NC(=O)OC)C(C)C)[nH]5)ccc4n32)s1 (single isomer, unassigned) [Compound 81]",IC50,HCV replicon 1AY93H; [1],0.019 nM
same,IC50,"HCV replicon 2B; read-out: 2B IC50, replicon 2B",0.027 nM
same,IC50,HCV replicon 1B; Hepatitis C virus,2 pM
same,IC50,HCV replicon 1AQ30D; [2],0.384 nM
same,IC50,HCV replicon 1A; Hepatitis C virus,2.7 pM
"COC(=O)N[C@H](C(=O)N1CCC[C@H]1c1ncc(-c2cc(F)c3c(c2)OC(c2cnc(OC)s2)n2c-3cc3cc(-c4cnc([C@@H]5CCCN5C(=O)[C@@H](NC(=O)OC)C(C)C)[nH]4)ccc32)[nH]1)C(C)C (single isomer, unassigned) [Compound 14]",IC50,HCV replicon 1AY93H; [1],0.0034 nM
same,IC50,"HCV replicon 2B; read-out: 2B IC50, replicon 2B",0.015 nM
same,IC50,HCV replicon 1B; Hepatitis C virus,2 pM
same,IC50,HCV replicon 1AQ30D; [2],0.115 nM
same,IC50,HCV replicon 1A,1.4 pM
"COC(=O)NC(C(=O)N1[C@@H]2C[C@@H]2C[C@H]1c1ncc(-c2ccc3c(c2)cc2n3C(c3cnc(C4CCC4)s3)Oc3cc(-c4cnc([C@@H]5CCCN5C(=O)[C@@H](NC(=O)OC)C(C)C)[nH]4)cc(C)c3-2)[nH]1)C1C[C@@H](C)O[C@@H](C)C1 (single isomer, unassigned) [Compound 222]",IC50,HCV replicon 1AY93H; [3],0.0059 nM
same,IC50,HCV replicon 2B; [4],0.007 nM
same,IC50,HCV replicon 1B; Hepatitis C virus,6 pM
same,IC50,HCV replicon 1AQ30D; [2],0.044 nM
same,IC50,HCV replicon 1A; Hepatitis C virus,2.7 pM
"COC(=O)NC(C(=O)N1[C@@H]2C[C@@H]2C[C@H]1c1ncc(-c2ccc3c(c2)cc2n3C(c3cnc(C4(C)CC4)s3)Oc3cc(-c4cnc([C@@H]5CCCN5C(=O)[C@@H](NC(=O)OC)C(C)C)[nH]4)cc(F)c3-2)[nH]1)C1CCOC(C)(C)C1 (single isomer, unassigned) [Compound 466]",IC50,HCV replicon 1AY93H; [1],0.002 nM
same,IC50,"HCV replicon 2B; read-out: 2B IC50, replicon 2B",0.005 nM
same,IC50,HCV replicon 1B,3 pM
same,IC50,HCV replicon 1AQ30D; [5],0.015 nM
same,IC50,HCV replicon 1A,2.7 pM
COC(=O)N[C@H](C(=O)N1CCC[C@H]1c1ncc(-c2cc(F)c3c(c2)OC(c2cnc(C4CCCCC4)s2)n2c-3cc3cc(-c4cnc([C@@H]5CCCN5C(=O)[C@@H](NC(=O)OC)C(C)C)[nH]4)ccc32)[nH]1)C(C)C (stereo partly shown) [Compound 527],IC50,HCV replicon 1AY93H; [1],0.005 nM
same,IC50,"HCV replicon 2B; read-out: 2B IC50, replicon 2B",0.014 nM
same,IC50,HCV replicon 1B; Hepatitis C virus,2.9 pM
same,IC50,HCV replicon 1AQ30D; [2],0.065 nM
same,IC50,HCV replicon 1A; Hepatitis C virus,2.4 pM
"COC(=O)NC(C(=O)N1CCC[C@H]1c1ncc(-c2ccc3c(c2)cc2n3C(c3cnc(C4CC4)s3)Oc3cc(-c4cnc([C@@H]5CCCN5C(=O)[C@@H](NC(=O)OC)C(C)C)[nH]4)cc(F)c3-2)[nH]1)C1CCOC(C)(C)C1 (single isomer, unassigned) [Compound 308]",IC50,HCV replicon 1AY93H; [1],0.0757 nM
same,IC50,"HCV replicon 2B; read-out: 2B IC50, replicon 2B",0.047 nM
same,IC50,HCV replicon 1B; Hepatitis C virus,3 pM
same,IC50,HCV replicon 1AQ30D; [5],0.496 nM
same,IC50,HCV replicon 1A,4.1 pM
"COC(=O)N[C@H](C(=O)N1CCC[C@H]1c1ncc(-c2cc(F)c3c(c2)OC(c2cnc(C4CC4)s2)n2c-3c(F)c3cc(-c4cnc([C@@H]5CCCN5C(=O)[C@@H](NC(=O)OC)C5CCOCC5)[nH]4)ccc32)[nH]1)C(C)C (single isomer, unassigned) [Compound 42]",IC50,HCV replicon 1AY93H; [1],0.0141 nM
same,IC50,"HCV replicon 2B; read-out: 2B IC50, replicon 2B",0.017 nM
same,IC50,HCV replicon 1B,2 pM
same,IC50,HCV replicon 1AQ30D; [5],0.123 nM
same,IC50,HCV replicon 1A,1.6 pM
"COC(=O)NC(C(=O)N1CCC[C@H]1c1ncc(-c2ccc3c(c2)cc2n3C(c3cnc(C4CCOCC4)s3)Oc3cc(-c4cnc([C@@H]5CCCN5C(=O)[C@@H](NC(=O)OC)C(C)C)[nH]4)cc(F)c3-2)[nH]1)C1CCOC(C)(C)C1 (single isomer, unassigned) [Compound 449]",IC50,HCV replicon 1AY93H; [1],0.064 nM
same,IC50,"HCV replicon 2B; read-out: 2B IC50, replicon 2B",0.044 nM
same,IC50,HCV replicon 1B,3.4 pM
same,IC50,HCV replicon 1AQ30D; [5],0.737 nM
same,IC50,HCV replicon 1A,4.3 pM
"COC(=O)N[C@H](C(=O)N1CCC[C@H]1c1ncc(-c2cc(F)c3c(c2)OC(c2cnc(C4CCOCC4)s2)n2c-3cc3cc(-c4cnc([C@@H]5CCCN5C(=O)[C@@H](NC(=O)OC)C(C)C)[nH]4)ccc32)[nH]1)C(C)C (single isomer, unassigned) [Compound 531]",IC50,HCV replicon 1AY93H; [1],0.022 nM
same,IC50,"HCV replicon 2B; read-out: 2B IC50, replicon 2B",0.056 nM
same,IC50,HCV replicon 1B; Hepatitis C virus,3.8 pM
same,IC50,HCV replicon 1AQ30D; [2],0.328 nM
same,IC50,HCV replicon 1A; Hepatitis C virus,2.5 pM
"COC(=O)NC(C(=O)N1CCC[C@H]1c1ncc(-c2ccc3c(c2)cc2n3C(c3cnc(C4(C)CC4)s3)Oc3cc(-c4cnc([C@@H]5CCCN5C(=O)[C@@H](NC(=O)OC)C(C)C)[nH]4)cc(F)c3-2)[nH]1)C1CCOC(C)(C)C1 (single isomer, unassigned) [Compound 458]",IC50,HCV replicon 1AY93H; [1],0.007 nM
same,IC50,"HCV replicon 2B; read-out: 2B IC50, replicon 2B",0.007 nM
same,IC50,HCV replicon 1B,3.5 pM
same,IC50,HCV replicon 1AQ30D; [5],0.024 nM
same,IC50,HCV replicon 1A,3 pM
"COC(=O)NC(C(=O)N1[C@@H]2C[C@@H]2C[C@H]1c1ncc(-c2ccc3c(c2)cc2n3C(c3cnc(C4(C)CCCC4)s3)Oc3cc(-c4cnc([C@@H]5CCCN5C(=O)[C@@H](NC(=O)OC)C(C)C)[nH]4)cc(F)c3-2)[nH]1)C1C[C@@H](C)O[C@@H](C)C1 (single isomer, unassigned) [Compound 473]",IC50,HCV replicon 1AY93H; [1],0.002 nM
same,IC50,"HCV replicon 2B; read-out: 2B IC50, replicon 2B",0.01 nM
same,IC50,HCV replicon 1B; Hepatitis C virus,2.8 pM
same,IC50,HCV replicon 1AQ30D; [2],0.011 nM
same,IC50,HCV replicon 1A; Hepatitis C virus,2.6 pM
COC(=O)N[C@H](C(=O)N1CCC[C@H]1c1ncc(-c2cc(F)c3c(c2)OC(c2cnc(-c4cnccn4)s2)n2c-3cc3cc(-c4cnc([C@@H]5CCCN5C(=O)[C@@H](NC(=O)OC)C(C)C)[nH]4)ccc32)[nH]1)C(C)C (mixture of isomers) [Compound 423],IC50,HCV replicon 1AY93H; [3],0.0526 nM
same,IC50,HCV replicon 2B; [4],0.041 nM
same,IC50,HCV replicon 1B; Hepatitis C virus,7 pM
same,IC50,HCV replicon 1AQ30D; [2],0.444 nM
same,IC50,HCV replicon 1A; Hepatitis C virus,5.3 pM
"CCc1ncc(C2Oc3cc(-c4cnc([C@@H]5CCCN5C(=O)[C@@H](NC(=O)OC)C(C)C)[nH]4)cc(F)c3-c3cc4cc(-c5cnc([C@@H]6C[C@H]7C[C@H]7N6C(=O)[C@@H](NC(=O)OC)C6C[C@@H](C)O[C@@H](C)C6)[nH]5)ccc4n32)s1 (single isomer, unassigned) [Compound 97]",IC50,HCV replicon 1AY93H; [1],0.0278 nM
same,IC50,"HCV replicon 2B; read-out: 2B IC50, replicon 2B",0.098 nM
same,IC50,HCV replicon 1B,3 pM
same,IC50,HCV replicon 1AQ30D; [5],0.287 nM
same,IC50,HCV replicon 1A,2.5 pM
"COC(=O)NC(C(=O)N1[C@@H]2C[C@@H]2C[C@H]1c1ncc(-c2ccc3c(c2)cc2n3C(c3cnc(C4CCCC4)s3)Oc3cc(-c4cnc([C@@H]5CCCN5C(=O)[C@@H](NC(=O)OC)C(C)C)[nH]4)cc(F)c3-2)[nH]1)C1CCOC(C)(C)C1 (single isomer, unassigned) [Compound 321]",IC50,HCV replicon 1AY93H; [1],0.0019 nM
same,IC50,"HCV replicon 2B; read-out: 2B IC50, replicon 2B",0.004 nM
same,IC50,HCV replicon 1B; Hepatitis C virus,3 pM
same,IC50,HCV replicon 1AQ30D; [5],0.007 nM
same,IC50,HCV replicon 1A; Hepatitis C virus,2.9 pM
"COC(=O)NC(C(=O)N1CCC[C@H]1c1ncc(-c2ccc3c(c2)cc2n3C(c3cnc(C4(C)CCCC4)s3)Oc3cc(-c4cnc([C@@H]5CCCN5C(=O)[C@@H](NC(=O)OC)C(C)C)[nH]4)cc(F)c3-2)[nH]1)C1C[C@@H](C)O[C@@H](C)C1 (single isomer, unassigned) [Compound 469]",IC50,HCV replicon 1AY93H; [1],0.002 nM
same,IC50,"HCV replicon 2B; read-out: 2B IC50, replicon 2B",0.005 nM
same,IC50,HCV replicon 1B; Hepatitis C virus,3.4 pM
same,IC50,HCV replicon 1AQ30D; [2],0.019 nM
same,IC50,HCV replicon 1A; Hepatitis C virus,3 pM
"COC(=O)NC(C(=O)N1[C@@H]2C[C@@H]2C[C@H]1c1ncc(-c2ccc3c(c2)cc2n3C(c3cnc(C4(C)CCCC4)s3)Oc3cc(-c4cnc([C@@H]5CCCN5C(=O)[C@@H](NC(=O)OC)C(C)C)[nH]4)cc(F)c3-2)[nH]1)C1CCOC(C)(C)C1 (single isomer, unassigned) [Compound 475]",IC50,HCV replicon 1AY93H; [1],0.001 nM
same,IC50,"HCV replicon 2B; read-out: 2B IC50, replicon 2B",0.008 nM
same,IC50,HCV replicon 1B; Hepatitis C virus,3.9 pM
same,IC50,HCV replicon 1AQ30D; [2],0.016 nM
same,IC50,HCV replicon 1A,2.4 pM
"COC(=O)NC(C(=O)N1CCC[C@H]1c1ncc(-c2ccc3c(c2)cc2n3C(c3cnc(C4CC4)s3)Oc3cc(-c4cnc([C@@H]5CCCN5C(=O)[C@@H](NC(=O)OC)C(C)C)[nH]4)cc(F)c3-2)[nH]1)C1C[C@@H](C)O[C@H](C)C1 (single isomer, unassigned) [Compound 304]",IC50,HCV replicon 1AY93H; [1],0.123 nM
same,IC50,"HCV replicon 2B; read-out: 2B IC50, replicon 2B",0.048 nM
same,IC50,HCV replicon 1B; Hepatitis C virus,3 pM
same,IC50,HCV replicon 1AQ30D; [5],0.954 nM
same,IC50,HCV replicon 1A; Hepatitis C virus,2 pM
